According to patent US20110263696A1, “PROANTHOCYANIDINS FROM CINNAMON AND ITS WATER SOLUBLE EXTRACT INHIBIT TAU AGGREGATION” (priority 2007, published 2011):

Experiments:
tau polypeptides = test: Light scattering measurements (absorbance at 350 nm) of tau aggregation; format: biochemical, human
Procedure: FIG. 11. Dose response of cinnamon (oxidized) on tau aggregation. […] In this experiment, cinnamon was incubated overnight in 10 mM NH4OH.
FIG. 12. Effect of cinnamon A trimer on light scattering of tau.
In one illustrative embodiment of the invention, the effects of cinnamon extract or purified cinnamon proanthocyanidins on tau aggregation can be followed readily in a spectrophotometer by measuring the change in absorbance at 350 nm. The association of tau promoted by heparin causes an increase in absorbance. […] Different buffers and temperatures may be used if desired to study factor influencing aggregation.

FL-tau [1] = target: T1, FL-tau (Homo sapiens, UniProt P10636); test: Electron microscopy of FL-tau fibers; format: biochemical; conditions: FL-tau 50 uM, heparin 0.1 mg/ml; trimer 200 uM (FIG. 3d)
T1 construct: full-length tau and an engineered truncation fragment of tau (tau187) were generated by over-expression of the recombinant human protein in bacteria; made in house; host or cells: bacteria
T1 sequence (P10636 1-441 isoform P10636-8): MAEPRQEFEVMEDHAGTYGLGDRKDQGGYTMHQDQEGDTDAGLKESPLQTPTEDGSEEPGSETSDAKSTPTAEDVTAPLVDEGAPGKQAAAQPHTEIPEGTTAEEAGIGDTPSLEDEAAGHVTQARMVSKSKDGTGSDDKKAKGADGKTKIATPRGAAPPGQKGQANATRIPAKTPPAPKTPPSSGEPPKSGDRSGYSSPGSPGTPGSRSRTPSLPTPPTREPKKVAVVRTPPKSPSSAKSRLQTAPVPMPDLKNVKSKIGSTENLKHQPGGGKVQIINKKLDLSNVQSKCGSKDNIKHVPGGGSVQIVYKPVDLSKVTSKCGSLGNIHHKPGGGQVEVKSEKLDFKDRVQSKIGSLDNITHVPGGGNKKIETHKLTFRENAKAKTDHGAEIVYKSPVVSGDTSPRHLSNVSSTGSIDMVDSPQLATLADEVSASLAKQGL
Procedure: (§1) FIG. 3. Proanthocyanidins inhibit tau aggregation. A) Turbidity assay. Aggregation of FL-tau (50 uM) was initiated with heparin (0.1 mg/ml) in 20 mM NaPO4, pH 7.0. Curve 1: no proanthocyanidin; Curve 2: 200 uM purified A-type trimer. B) After 45 min, reactions were centrifuged at 100,000 g×60 min. The amount of tau in the pellets (P) vs. supernatants (S) were examined by SDS-PAGE. Markers (top to bottom) are 97, 66, 45 kDa. C, D) EM after aggregation for 45 min. Scale bars=500 nm; C) no proanthocyanidin, D) 200 uM purified A-type trimer.
(§2) As shown by the data disclosed in the various figures, proanthocyanidins bind to tau and inhibit tau aggregation. […] In these experiments, heparin-induced aggregation of tau into PHF-like fibers is routinely monitored by four methods: 1) enhanced Thioflavin S fluorescence emission; 2) increased turbidity measured by OD350; 3) ultracentrifugation of sarkosyl-treated samples, and 4) electron microscopy. […] To ensure that proanthocyanidin molecules were not simply binding to and precipitating tau in a non-specific manner, the amount of tau that fractionated with the pellet vs. supernatant after high-speed ultracentrifugation was analyzed.

[2] = system: Full-length tau or tau 187; test: Gel electrophoresis of sarkosyl pellets vs supernatants; format: biochemical, human
Chain of Full-length tau or tau 187 (P10636 572-758 limits assumed): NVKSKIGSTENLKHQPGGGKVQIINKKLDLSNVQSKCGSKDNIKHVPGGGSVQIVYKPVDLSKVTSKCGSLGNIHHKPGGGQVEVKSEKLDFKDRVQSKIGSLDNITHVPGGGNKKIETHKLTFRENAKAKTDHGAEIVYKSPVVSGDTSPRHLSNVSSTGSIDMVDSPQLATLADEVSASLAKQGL
Procedure: In one illustrative embodiment of the invention, gel electrophoresis also can be used to study effects on aggregation. The advantage here is that simple equipment is needed for these measurements but the system provides less definition of the effects of the inhibitors than electron microscopy. Full-length tau or tau 187 (50 uM) is induced to undergo aggregation with heparin (0.1 mg/ml) for 16 hours at room temperature in the presence of varying concentrations of cinnamon extract or cinnamon proanthocyanidin type A trimer. Samples are then treated with 1% sarkosyl for 1 hr, centrifuged (105,000 g×1 hr), and the pellets (P) versus supernatants (S) then analyzed by SDS-PAGE. The increase in the ratio of tau in the pellet compared to the supernatant is a measure of aggregation and cinnamon extract or purified proanthocyanidin is found to decrease this ratio.

tau187 [3] = target: T2, tau187 (Homo sapiens, UniProt P10636); test: Turbidity (OD350) assay of heparin-induced aggregation, tau187; format: biochemical; conditions: trimer 12.5 uM as pure trimer or as whole extract (0.22 mg/mL CE); OD 350 (FIG. 17)
T2 construct: his; made in house; host or cells: bacteria
T2 sequence (P10636 572-758 limits assumed): as above
Procedure: FIG. 15A. […] 50 μM Tau^187 was incubated with 0.11 mg/ml heparin (18 kDa) at 23° C. Aggregation was monitored by turbidity (OD350). Cinnamaldehyde was present at a final concentration of 0, 50 and 100 μM. FIG. 15B. Electron microscopy of tau fibers in the presence of cinnamaldehyde (CA). Tau fibers were visualized by electron microscopy after 5 hrs of aggregation in the presence of: 0 CA (left panel); B) 100 uM CA (right panel). […] FIG. 15 C. Trans-cinnamaldehyde chemical structure. FIG. 16A. […] 50 uM tau187 was incubated with 0.11 mg/mL heparin (18 kDa) at 23° C. Epicatechin was untreated, treated with 10 mM NH4OH for 10 min at 95° C. then neutralized, or treated with 100 U of mushroom tyrosinase (Sigma) for 10 min. Epicatechin was added to the reaction at a final concentration of 25 uM. Fiber formation was monitored by OD 350. FIG. 16B. epicatechin and catechin chemical structures. FIG. 17A. HPLC analysis of proanthocyanidin A-type trimer, A) purified or B) in whole cinnamon extract. The trimer corresponds to the major peak at ˜40 min. Areas underneath the peaks in panels A and B each correspond to 6150 pmoles. […] Fiber formation was monitored by OD 350. Concentrations of A-trimer in pure form and in whole cinnamon extract (CE) were normalized by absorbance measurements of the A-trimer resolved by HPLC. […]

FL-tau [4] = target: T1, FL-tau; test: Turbidity assay of heparin-induced aggregation, FL-tau; format: biochemical; conditions: FL-tau 50 uM, heparin 0.1 mg/ml, pH 7.0; trimer 200 uM (FIG. 3a)
Procedure: as §1, §2

tau187 [5] = target: T2, tau187; test: UV absorbance spectra, binding to tau; conditions: trimer 15 uM, 0-17.6 uM tau187, isosbestic point
Procedure: FIG. 2. UV absorbance spectra of purified A-type proanthocyanidin trimer as a function of increasing tau concentration. The curves from top to bottom (at A280) are as follows: 0 uM; 4.4 uM; 8.8 uM; 17.6 uM tau^187; proanthocyanidin trimer=15 uM. As is known in the art, the isobestic points are found where the curves overlap.
as §2, with “aggregation. In illustrative experiments, full-length tau and an engineered truncation fragment of tau (tau187) were generated by over-expression of the recombinant human protein in bacteria followed by purification to homogeneity by conventional chromatography. […] The UV spectra display an isosbestic point consistent with a specific binding mechanism.” for “aggregation.”

Chain of tau polypeptides (P10636 572-758 limits assumed): as above

Inhibition of tau187 aggregation, whole extract vs pure trimer at equal trimer content (tau187 [3]): inhibits tau polypeptide aggregation
Inhibition of FL-tau aggregation (turbidity) (FL-tau [4]): dramatically inhibited
Binding to tau by change in UV absorbance spectrum (tau187 [5]): displays affinity for monomeric tau
Binding to tau by change in UV absorbance spectrum (tau187 [5]; listed as proanthocyanidin A): binds directly to tau
Substance: A-linked proanthocyanidin trimer [A-type trimer]
Inhibition of tau aggregation by light scattering (tau polypeptides): inhibits the aggregation
FL-tau fibers by EM after aggregation for 45 min (FL-tau [1]): short fibers that were very much less abundant
Tau aggregation by gel electrophoresis [2]: less aggregation of tau
